Like-named read-outs stand apart in the source and are kept apart here.
Biological target: T1, SIRT1 (Homo sapiens, UniProt Q96EB6)
T1 sequence (Q96EB6 1-747): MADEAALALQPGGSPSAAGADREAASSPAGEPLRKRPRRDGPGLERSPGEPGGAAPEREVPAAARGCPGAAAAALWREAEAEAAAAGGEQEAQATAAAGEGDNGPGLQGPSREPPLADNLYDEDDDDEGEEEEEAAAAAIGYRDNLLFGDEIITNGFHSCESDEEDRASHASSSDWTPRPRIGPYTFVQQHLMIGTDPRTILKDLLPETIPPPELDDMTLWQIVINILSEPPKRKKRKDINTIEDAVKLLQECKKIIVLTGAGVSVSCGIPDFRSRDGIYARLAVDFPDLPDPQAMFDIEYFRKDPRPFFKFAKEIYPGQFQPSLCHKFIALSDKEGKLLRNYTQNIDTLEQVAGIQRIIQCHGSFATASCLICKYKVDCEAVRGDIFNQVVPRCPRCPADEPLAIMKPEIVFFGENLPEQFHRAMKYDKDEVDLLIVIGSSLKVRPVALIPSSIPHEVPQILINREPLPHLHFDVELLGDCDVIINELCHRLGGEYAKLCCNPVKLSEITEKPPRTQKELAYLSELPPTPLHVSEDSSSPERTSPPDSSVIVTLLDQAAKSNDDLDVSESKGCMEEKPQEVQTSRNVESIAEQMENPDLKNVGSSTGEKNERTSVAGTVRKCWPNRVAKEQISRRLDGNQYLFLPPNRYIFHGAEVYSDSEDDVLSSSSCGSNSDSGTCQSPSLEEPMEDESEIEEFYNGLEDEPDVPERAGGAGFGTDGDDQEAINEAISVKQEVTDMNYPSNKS
Assay: Trp mass spectrometry assay (SIRT1 activation)
Format: biochemical
Conditions: for Emax: percent maximum fold activation of SIRT1, read-out: Tryp % Fold Act
Outline: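 N-His-tagged SIRT1 (10 nM), expressed in E. coli, was incubated with 0.5 μM Ac-RHKK(Ac)W-NH2 peptide and 120 μM NAD+ for 25 min at 25 °C in HEPES pH 7.5 with […]. The reaction was stopped with formic acid and O-acetyl-ADP-ribose or deacetylated peptide was quantified by mass spectrometry. Results are given as EC1.5 and percent maximal activation relative to DMSO control.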

[1] = concentration of test compound that results in 150% activation of SIRT1, Trp peptide substrate
[2] = Trp mass spectrometry assay, EC1.5 = concentration of test compound that results in 150% activation of SIRT1
[3] = Trp mass spectrometry assay, EC1.5 = concentration giving 150% activation of SIRT1

Row | Structure (SMILES) | Tryp AVG EC1.5 (μM) [1] | Emax (Trp peptide substrate) [%] | Tryp AVG EC1.5 (μM) [2] | Emax (Trp mass spectrometry assay) [%] | Tryp AVG EC1.5 (μM) [3]
1 | O=C(Nc1cccc(C2(C(F)(F)F)N=N2)c1)N1c2nc(-c3cccc(C(F)(F)F)c3)ccc2N2CCC[C@H]1C2 [Example 335] | A (EC1.5<1 μM) | ≥ 150 | – | – | –
2 | O=C(Nc1ccc(F)cn1)N1c2nc(C3CCCC(C(F)(F)F)C3)ccc2N2CC[C@H]1C2 (stereo partly shown) [Example 144] | – | – | B (EC1.5 1-25 μM) | ≥ 150 | –
3 | Cn1cc(NC(=O)N2c3nc(-c4cccc(Cl)c4)ccc3N3CC[C@H]2C3)cn1 [Example 108] | – | – | B (EC1.5 1-25 μM) | ≥ 150 | –
4 | O=C(Nc1nnc(-c2ccccc2)o1)N1c2nc(-c3cccc(C(F)(F)F)c3)ccc2N2CC[C@H]1C2 [Example 719] | – | – | – | ≥ 150 | A (EC1.5<1 μM)
5 | CC(C)(C)OC(=O)NCc1cn(-c2cccc(NC(=O)N3c4nc(-c5cccc(C(F)(F)F)c5)ccc4N4CC[C@H]3C4)c2)nn1 [Example 605] | A (EC1.5<1 μM) | ≥ 150 | – | – | –
6 | O=C(Nc1cncc(F)c1)N1c2nc(-c3cncc(F)c3)ccc2N2CCC1CC2 [Example 571] | B (EC1.5 1-25 μM) | ≥ 150 | – | – | –
7 | O=C(CCCC[C@@H]1SCC2NC(=O)NC21)NCCCCCC(=O)NCc1ccc(NC(=O)N2c3nc(-c4cccc(C(F)(F)F)c4)ccc3N3CCC[C@H]2C3)cc1 (stereo partly shown) [Example 430] | A (EC1.5<1 μM) | ≥ 150 | – | – | –
8 | O=C(Nc1ccc(F)cn1)N1c2nc(-c3cncc(Cl)c3)ccc2N2CCC[C@H]1C2 [Example 401] | A (EC1.5<1 μM) | ≥ 150 | – | – | –
9 | O=C(Nc1ccccn1)N1c2nc(-c3ccc(-c4nnn[nH]4)cc3)ccc2N2CC[C@H]1C2 [Example 347] | A (EC1.5<1 μM) | ≥ 150 | – | – | –
10 | O=C(Nc1ccncc1)N1c2nc(-c3cccc(Cl)c3)ccc2N2CCC[C@H]1C2 [Example 409] | A (EC1.5<1 μM) | ≥ 150 | – | – | –
11 | O=C(Nc1cccc(-c2cnco2)c1)N1c2nc(-c3cccc(OC(F)(F)F)c3)ccc2N2CC[C@H]1C2 [Example 162] | – | – | A (EC1.5<1 μM) | ≥ 150 | –
12 | O=C(Nc1nnc(-c2cccnc2)s1)N1c2nc(-c3cccc(C(F)(F)F)c3)ccc2N2CC[C@H]1C2 [Example 651] | – | – | – | ≥ 150 | A (EC1.5<1 μM)
13 | O=C(Nc1ccc(F)cn1)N1c2nc(-c3ccnc(N4CC[C@@H](F)C4)c3)ccc2N2CC[C@H]1C2 [Example 474] | A (EC1.5<1 μM) | ≥ 150 | – | – | –
14 | Cc1nc(NC(=O)N2c3nc(-c4cccc(C#N)c4)ccc3N3CC[C@H]2C3)sc1C [Example 179] | – | – | A (EC1.5<1 μM) | ≥ 150 | –
15 | O=C(Nc1cncc(F)c1)N1c2nc(-c3cccc(N4CCC(C(F)(F)F)C4)c3)ccc2N2CC[C@H]1C2 (stereo partly shown) [Example 323] | B (EC1.5 1-25 μM) | ≥ 150 | – | – | –
16 | CC(C)n1cc(-c2ccc3c(n2)N(C(=O)Nc2cccnc2)[C@H]2CCN3C2)cn1 [Example 494] | B (EC1.5 1-25 μM) | ≥ 150 | – | – | –
17 | Cc1cc(OCC(O)CO)nc(NC(=O)N2c3nc(-c4cccc(C(F)(F)F)c4)ccc3N3CC[C@H]2C3)n1 (stereo partly shown) [Example 26] | – | – | B (EC1.5 1-25 μM) | ≥ 150 | –
18 | O=C(Nc1cccnc1)N1c2nc(-c3cncc(Cl)c3)ccc2N2CC[C@H]1C2 [Example 526] | A (EC1.5<1 μM) | ≥ 150 | – | – | –
19 | O=C(Nc1ccccn1)N1c2nc(-c3cc(F)cc(F)c3)ccc2N2CC[C@H]1C2 [Example 344] | A (EC1.5<1 μM) | ≥ 150 | – | – | –
20 | O=C(Nc1cnccn1)N1c2nc(-c3cccc(Cl)c3)ccc2N2C[C@@H](O)[C@H]1C2 [Example 678] | – | – | – | < 150 | C (EC1.5>25 μM)
21 | O=C(Nc1ccccn1)N1c2nc(-c3cncc(Cl)c3)ccc2N2CCC[C@H]1C2 [Example 406] | A (EC1.5<1 μM) | ≥ 150 | – | – | –
22 | O=C(Nc1cnccn1)N1c2nc(-c3cc(F)c(F)c(F)c3)ccc2N2CC[C@H]1C2 [Example 416] | C (EC1.5>25 μM) | < 150 | – | – | –
23 | COc1cncc(NC(=O)N2c3nc(-c4cccc(OC(F)(F)F)c4)ccc3N3CC[C@H]2C3)n1 [Example 197] | – | – | A (EC1.5<1 μM) | ≥ 150 | –
24 | Cc1ccc(-c2ccc3c(n2)N(C(=O)Nc2cccnc2)[C@H]2CCCN3C2)cn1 [Example 514] | B (EC1.5 1-25 μM) | ≥ 150 | – | – | –

Row | Structure (SMILES) | Tryp AVG EC1.5 (μM) [1] | Emax (Trp peptide substrate) [%] | Tryp AVG EC1.5 (μM) [2] | Emax (Trp mass spectrometry assay) [%] | Tryp AVG EC1.5 (μM) [3]
25 | O=C(Nc1cnccn1)N1c2nc(-c3cc(Cl)cc(Cl)c3)ccc2N2CC[C@H]1C2 [Example 364] | B (EC1.5 1-25 μM) | ≥ 150 | – | – | –
26 | Cc1cnc(NC(=O)N2c3nc(-c4cccc(C(F)(F)F)c4)ccc3N3CC[C@H]2C3)nc1-c1ccccc1 [Example 79] | – | – | – | ≥ 150 | –
27 | CS(=O)(=O)c1cncc(-c2ccc3c(n2)N(C(=O)Nc2ccccn2)[C@H]2CCCN3C2)c1 [Example 375] | A (EC1.5<1 μM) | ≥ 150 | – | – | –
28 | NCCCCCC(=O)NCc1cccc(NC(=O)N2c3nc(-c4cccc(C(F)(F)F)c4)ccc3N3CCC[C@H]2C3)c1 [Example 756] | – | – | – | ≥ 150 | A (EC1.5<1 μM)
29 | O=C(Nc1cncc(F)c1)N1c2nc(N3CCCC(C(F)(F)F)C3)ccc2N2CCC[C@H]1C2 (stereo partly shown) [Example 290] | A (EC1.5<1 μM) | ≥ 150 | – | – | –
30 | Cc1nc(NC(=O)N2c3nc(-c4cccc(C(F)(F)F)c4)ccc3N3CCC[C@H]2C3)sc1C [Example 33] | – | – | – | ≥ 150 | –
31 | CS(=O)(=O)N1CCCN(c2ccc3c(n2)N(C(=O)Nc2ccncn2)[C@H]2CCCN3C2)CC1 [Example 433] | B (EC1.5 1-25 μM) | ≥ 150 | – | – | –
32 | O=C(Nc1ccncn1)N1c2nc(-c3cncc(C(F)(F)F)c3)ccc2N2CCC[C@H]1C2 [Example 393] | A (EC1.5<1 μM) | ≥ 150 | – | – | –
33 | N#Cc1cccc(-c2ccc3c(n2)N(C(=O)Nc2cccnn2)[C@H]2CCCN3C2)c1 [Example 381] | B (EC1.5 1-25 μM) | ≥ 150 | – | – | –
34 | O=C(Nc1cnccn1)N1c2nc(-c3ccnc(N4CC[C@H](F)C4)c3)ccc2N2CC[C@H]1C2 [Example 436] | A (EC1.5<1 μM) | ≥ 150 | – | – | –
35 | O=C(Nc1cnccn1)N1c2nc(-c3cccc(C(F)(F)F)c3)ccc2N2CCC[C@H]1C2 [Example 27] | – | – | – | ≥ 150 | –
36 | N#Cc1cncc(-c2ccc3c(n2)N(C(=O)Nc2cnccn2)[C@H]2CCN3C2)c1 [Example 459] | A (EC1.5<1 μM) | ≥ 150 | – | – | –
37 | O=C(Nc1cnccn1)N1c2nc(-c3cccc(C(F)(F)F)c3)ccc2N2C[C@@H](O)[C@H]1C2 [Example 645] | – | – | – | ≥ 150 | A (EC1.5<1 μM)
38 | O=C(Nc1cncc(F)c1)N1c2nc(-c3cccc(N4CC[C@H](F)C4)c3)ccc2N2CC[C@H]1C2 [Example 283] | A (EC1.5<1 μM) | ≥ 150 | – | – | –
39 | NCCCCCC(=O)NCc1cccc(NC(=O)N2c3nc(-c4cccc(C(F)(F)F)c4)ccc3N3CC[C@H]2C3)c1 [Example 758] | – | – | – | ≥ 150 | A (EC1.5<1 μM)
40 | Cc1nc(NC(=O)N2c3nc(N4CCCC(C(F)(F)F)C4)ccc3N3CCC[C@H]2C3)sc1C (stereo partly shown) [Example 298] | B (EC1.5 1-25 μM) | ≥ 150 | – | – | –
41 | O=C(Nc1ccccn1)N1c2nc(-c3cc(Cl)cc(Cl)c3)ccc2N2CC[C@H]1C2 [Example 324] | A (EC1.5<1 μM) | ≥ 150 | – | – | –
42 | O=C(Nc1cccc(-c2cnco2)n1)N1c2nc(-c3cccc(C(F)(F)F)c3)ccc2N2CCC[C@H]1C2 [Example 590] | A (EC1.5<1 μM) | ≥ 150 | – | – | –
43 | CS(=O)(=O)c1cccc(-c2ccc3c(n2)N(C(=O)Nc2cncc(-c4cnco4)c2)[C@H]2CCN3C2)c1 [Example 724] | – | – | – | ≥ 150 | A (EC1.5<1 μM)
44 | C#Cc1ccc(NC(=O)N2c3nc(-c4cccc(C5(C(F)(F)F)N=N5)c4)ccc3N3CC[C@H]2C3)nc1 [Example 803] | – | – | – | ≥ 150 | A (EC1.5<1 μM)
45 | O=C(Nc1cnccn1)N1c2nc(-c3ccnc(N4CCC(C(F)(F)F)C4)c3)ccc2N2CC[C@H]1C2 (stereo partly shown) [Example 389] | A (EC1.5<1 μM) | ≥ 150 | – | – | –
46 | O=C(NCCc1cccnc1)N1c2nc(-c3cccc(C(F)(F)F)c3)ccc2N2CC[C@H]1C2 [Example 615] | B (EC1.5 1-25 μM) | ≥ 150 | – | – | –
47 | O=C(Nc1ccc(F)cn1)N1c2nc(N3CCCC(C(F)(F)F)C3)ccc2N2CCC[C@H]1C2 (stereo partly shown) [Example 359] | A (EC1.5<1 μM) | ≥ 150 | – | – | –
